Data on twelve compounds can be found in patent US11208386B2, “Inhibitors of protein arginine deiminases (PADs) and methods of preparation and use thereof” (University of Massachusetts, priority 2016, dated 2021).

pKi: −log10 of the molar value.

Common to all, as to assay type: biochemical
One assay deals with T1, PAD1 (Homo sapiens, UniProt Q9ULC6).
T1 construct: made in house
T1 sequence (Q9ULC6 1-663): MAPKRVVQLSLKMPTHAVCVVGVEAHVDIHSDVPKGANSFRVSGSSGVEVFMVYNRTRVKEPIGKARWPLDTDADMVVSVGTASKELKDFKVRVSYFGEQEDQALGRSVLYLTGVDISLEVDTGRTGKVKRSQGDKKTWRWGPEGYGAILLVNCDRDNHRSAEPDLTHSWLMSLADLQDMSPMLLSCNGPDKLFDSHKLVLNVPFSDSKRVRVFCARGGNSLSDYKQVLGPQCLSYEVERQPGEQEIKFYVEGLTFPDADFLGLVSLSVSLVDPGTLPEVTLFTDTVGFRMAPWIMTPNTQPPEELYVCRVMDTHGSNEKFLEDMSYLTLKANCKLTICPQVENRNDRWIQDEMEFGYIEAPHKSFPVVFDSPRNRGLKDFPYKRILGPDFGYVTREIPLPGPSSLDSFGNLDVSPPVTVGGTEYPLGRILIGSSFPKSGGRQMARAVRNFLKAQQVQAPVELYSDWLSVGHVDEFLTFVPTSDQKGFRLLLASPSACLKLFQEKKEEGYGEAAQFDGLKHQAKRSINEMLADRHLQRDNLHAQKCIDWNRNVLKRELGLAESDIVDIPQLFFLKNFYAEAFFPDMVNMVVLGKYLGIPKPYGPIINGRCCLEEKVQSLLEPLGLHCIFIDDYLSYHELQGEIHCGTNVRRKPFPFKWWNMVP
The assay can be described thus: Inactivation kinetics, PAD1. To be noted: for kinact/KI: a: single kobs determined, b: from a linear fit; for Fold PAD1 Selectivity: kinact/KI relative to least inhibited isozyme (1.0). The procedure, abridged:
(§1)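 PAD1, 2 or 4 (2.0 μM) or PAD3 (5.0 μM) preincubated at 37 °C with varying inhibitor in 50 mM HEPES, 10 mM CaCl2, 2 mM DTT, pH 7.6. Timed aliquots assayed 15 min with 10 mM BAEE (BAA for PAD3); citrulline quantified by COLDER.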

Another assay addresses T2, PAD2 (Homo sapiens, UniProt Q9Y2J8).
T2 construct: made in house
The assay can be described thus: Inactivation kinetics, PAD2. Conditions: for pKi / kinact: PAD2, table footnote; for kinact/KI: a: single kobs determined, b: from a linear fit, other footnotes: from kinact and KI; for Fold PAD2 Selectivity: kinact/KI relative to least inhibited isozyme (1.0). The procedure, abridged:
as §1

Another assay addresses T3, PAD3 (Homo sapiens, UniProt Q9ULW8).
T3 construct: made in house
T3 sequence (Q9ULW8 1-664): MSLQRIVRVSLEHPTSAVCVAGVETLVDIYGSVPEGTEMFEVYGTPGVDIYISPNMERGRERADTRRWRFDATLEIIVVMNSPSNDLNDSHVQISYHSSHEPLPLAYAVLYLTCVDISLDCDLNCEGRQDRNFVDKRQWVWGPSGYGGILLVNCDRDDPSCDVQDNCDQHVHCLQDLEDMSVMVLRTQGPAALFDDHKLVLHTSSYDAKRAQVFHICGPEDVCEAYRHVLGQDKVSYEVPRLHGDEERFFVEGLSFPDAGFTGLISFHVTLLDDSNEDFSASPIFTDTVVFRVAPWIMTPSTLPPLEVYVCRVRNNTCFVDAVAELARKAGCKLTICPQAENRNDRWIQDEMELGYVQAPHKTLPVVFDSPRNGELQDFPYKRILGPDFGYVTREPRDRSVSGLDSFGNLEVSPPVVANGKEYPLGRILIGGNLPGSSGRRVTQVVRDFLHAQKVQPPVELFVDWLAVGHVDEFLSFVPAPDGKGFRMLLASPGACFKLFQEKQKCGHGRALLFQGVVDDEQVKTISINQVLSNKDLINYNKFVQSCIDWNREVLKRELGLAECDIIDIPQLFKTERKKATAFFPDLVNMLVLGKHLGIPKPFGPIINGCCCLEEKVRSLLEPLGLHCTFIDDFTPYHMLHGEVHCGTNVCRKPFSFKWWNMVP
The assay can be described thus: Inactivation kinetics, PAD3. Conditions: for kinact/KI: a: single kobs determined; for Fold PAD3 Selectivity: kinact/KI relative to least inhibited isozyme (1.0). An outline of the steps:
as §1

Another assay has as its target T4, PAD4 (Homo sapiens, UniProt Q9UM07).
T4 construct: made in house
The assay can be described thus: Inactivation kinetics, PAD4. Conditions: for kinact/KI: a: single kobs determined, b: from a linear fit; for Fold PAD4 Selectivity: kinact/KI relative to least inhibited isozyme (1.0). The procedure, abridged: as §1

T4 sequence (Q9UM07 whole entry): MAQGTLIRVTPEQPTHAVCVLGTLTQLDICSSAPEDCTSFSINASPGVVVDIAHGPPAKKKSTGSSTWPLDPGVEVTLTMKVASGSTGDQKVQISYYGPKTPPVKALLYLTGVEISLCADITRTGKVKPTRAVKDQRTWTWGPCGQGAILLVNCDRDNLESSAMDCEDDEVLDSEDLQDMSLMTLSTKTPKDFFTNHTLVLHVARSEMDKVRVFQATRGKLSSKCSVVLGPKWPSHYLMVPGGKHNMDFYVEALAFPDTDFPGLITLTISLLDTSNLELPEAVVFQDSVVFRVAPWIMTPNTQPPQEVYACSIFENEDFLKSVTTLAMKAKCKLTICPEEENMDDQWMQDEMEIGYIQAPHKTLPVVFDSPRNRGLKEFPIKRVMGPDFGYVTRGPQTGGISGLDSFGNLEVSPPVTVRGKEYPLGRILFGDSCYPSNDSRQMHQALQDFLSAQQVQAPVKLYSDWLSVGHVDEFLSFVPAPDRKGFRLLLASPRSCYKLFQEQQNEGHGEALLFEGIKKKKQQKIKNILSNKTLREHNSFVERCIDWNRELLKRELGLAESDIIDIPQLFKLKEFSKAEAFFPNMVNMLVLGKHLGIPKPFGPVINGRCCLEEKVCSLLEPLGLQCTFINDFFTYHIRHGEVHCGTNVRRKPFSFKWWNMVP
T2 sequence (Q9Y2J8 whole entry): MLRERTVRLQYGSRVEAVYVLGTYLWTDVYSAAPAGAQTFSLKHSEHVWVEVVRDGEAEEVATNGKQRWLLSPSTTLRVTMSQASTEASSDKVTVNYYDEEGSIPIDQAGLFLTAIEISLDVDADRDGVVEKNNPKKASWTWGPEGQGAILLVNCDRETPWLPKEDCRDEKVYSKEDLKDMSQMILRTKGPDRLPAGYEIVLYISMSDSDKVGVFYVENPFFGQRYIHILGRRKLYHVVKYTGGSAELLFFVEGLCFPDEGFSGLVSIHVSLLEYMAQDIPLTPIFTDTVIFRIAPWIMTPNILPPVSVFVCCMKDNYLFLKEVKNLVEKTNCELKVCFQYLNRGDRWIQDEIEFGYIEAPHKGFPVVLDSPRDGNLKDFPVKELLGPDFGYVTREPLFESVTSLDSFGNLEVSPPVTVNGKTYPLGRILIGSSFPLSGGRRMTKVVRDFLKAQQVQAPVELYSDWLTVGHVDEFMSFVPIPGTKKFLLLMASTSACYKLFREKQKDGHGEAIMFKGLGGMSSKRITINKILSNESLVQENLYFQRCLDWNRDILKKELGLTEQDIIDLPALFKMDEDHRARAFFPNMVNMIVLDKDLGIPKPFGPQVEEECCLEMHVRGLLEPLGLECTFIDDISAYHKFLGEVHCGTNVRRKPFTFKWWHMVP

Turning to `COc1cccc2c1nc([C@H](CCCNC(=N)CF)NC(=O)c1cccc3c1C(=O)NC3)n2C` [Compound 7k, N1-(3-oxoisoindoline)benzoyl-N5-(2-fluoro-1-iminoethyl)-1-(4-methoxy-1-methyl-benzo[d]imidazol-2-yl)-L-ornithine], on PAD1, the kinact/KI (commonly the maximal inactivation rate divided by the concentration that gives half of it) was 2150 M⁻¹ s⁻¹ and the “Fold PAD1 Selectivity” value came out at 29 fold. Further, on PAD2, the pKi (usually the negative decadic logarithm of the Ki, by convention in mol/L) is 4.78; the kinact (usually the rate constant of inactivation at saturating inhibitor) came to 0.0578 s⁻¹; the second-order inactivation constant (kinact/KI) was 3500 M⁻¹ s⁻¹; the “Fold PAD2 Selectivity” value is listed as 47 fold. Further, at PAD3, the kinact/KI was 73.8 M⁻¹ s⁻¹ and the “Fold PAD3 Selectivity” value is 1.0 fold. Further, on PAD4, the second-order inactivation constant (kinact/KI) was 238 M⁻¹ s⁻¹ and the “Fold PAD4 Selectivity” value amounted to 3.2 fold.
In the case of `N=C(CCl)NCCC[C@H](NC(=O)c1ccc(-c2ccccc2)cc1)c1nc2cc(F)c(F)cc2[nH]1` [Compound 5r, N1-[1,1′-Phenyl]benzoyl-N5-(2-chloro-1-iminoethyl)-1-(5,6-difluoro-1H-benzo[d]imidazol-2-yl)-L-ornithine], at PAD1, the second-order inactivation constant (kinact/KI) is 457 M⁻¹ s⁻¹ and the “Fold PAD1 Selectivity” value was 4.9 fold. On PAD2, the kinact/KI is 93.3 M⁻¹ s⁻¹ and the “Fold PAD2 Selectivity” value is reported as 1.0 fold. Also, on PAD3, the kinact/KI is 239 M⁻¹ s⁻¹ and the “Fold PAD3 Selectivity” value is 2.6 fold. On PAD4, the kinact/KI was 337 M⁻¹ s⁻¹ and the “Fold PAD4 Selectivity” value turned out to be 3.6 fold.
On to `CCN1Cc2cccc(C(=O)N[C@@H](CCCNC(=N)CF)c3nc4cc(OC)ccc4[nH]3)c2C1=O` [Compound 8w, N1-(2-ethyl-3-oxoisoindoline)benzol-N5-(2-fluoro-1-iminoethyl)-1-(5-methoxy-1H-benzo[d]imidazol-2-yl)-L-ornithine], for which, on PAD1, the kinact/KI was 156 M⁻¹ s⁻¹ and the “Fold PAD1 Selectivity” value is 4.4 fold. Also, on PAD2, the kinact/KI was 226 M⁻¹ s⁻¹ and the “Fold PAD2 Selectivity” value came to 6.3 fold. Besides, on PAD3, the kinact/KI was 127 M⁻¹ s⁻¹ and the “Fold PAD3 Selectivity” value turned out to be 3.6 fold. For the same compound, on PAD4, the kinact/KI was 35.7 M⁻¹ s⁻¹ and the “Fold PAD4 Selectivity” value turned out to be 1.0 fold.
As to `N=C(CF)NCCC[C@H](NC(=O)c1cccc2c1C(=O)NC2)c1nc2ccccc2[nH]1` [Compound 7a, N1-(3-oxoisoindoline)benzol-N5-(2-fluoro-1-iminoethyl)-1-(1H-benzo[d]imidazol-2-yl)-L-ornithine], on PAD1, the kinact/KI was 1290 M⁻¹ s⁻¹ and the “Fold PAD1 Selectivity” value came out at 24 fold. On PAD2, the pKi was 3.68, the kinact was determined as 0.0373 s⁻¹, the kinact/KI is 177 M⁻¹ s⁻¹ and the “Fold PAD2 Selectivity” value is given as 3.3 fold. At PAD3, the kinact/KI is 53.3 M⁻¹ s⁻¹ and the “Fold PAD3 Selectivity” value turned out to be 1.0 fold. Besides, at PAD4, the kinact/KI was 552 M⁻¹ s⁻¹ and the “Fold PAD4 Selectivity” value is listed as 10 fold.
For the compound `COc1ccc2c(c1)nc([C@H](CCCNC(=N)CF)NC(=O)c1cccc3c1C(=O)NC3)n2C` [Compound 7o, N1-(3-oxoisoindoline)benzoyl-N5-(2-fluoro-1-iminoethyl)-1-(5-methoxy-1-methyl-benzo[d]imidazol-2-yl)-L-ornithine], at PAD1, the kinact/KI is 2080 M⁻¹ s⁻¹ and the “Fold PAD1 Selectivity” value is listed as 121 fold. At PAD2, the pKi was 4.68, the kinact was found to be 0.0403 s⁻¹, the inactivation efficiency (kinact/KI) is 1960 M⁻¹ s⁻¹ and the “Fold PAD2 Selectivity” value is on record as 114 fold. On PAD3, the kinact/KI is 17.2 M⁻¹ s⁻¹ and the “Fold PAD3 Selectivity” value amounted to 1.0 fold. Also, on PAD4, the kinact/KI was 20.5 M⁻¹ s⁻¹ and the “Fold PAD4 Selectivity” value stood at 1.2 fold.
`CCN1Cc2cccc(C(=O)N[C@@H](CCCNC(=N)CF)c3nc4ccccc4n3CC)c2C1=O` [Compound 8e, N1-(2-ethyl-3-oxoisoindoline)benzoyl-N5-(2-fluoro-1-iminoethyl)-1-(1-ethyl-benzo[d]imidazol-2-yl)-L-ornithine]: at PAD1, the kinact/KI was 402 M⁻¹ s⁻¹ and the “Fold PAD1 Selectivity” value was 19 fold. Also, on PAD2, the second-order inactivation constant (kinact/KI) was 677 M⁻¹ s⁻¹ and the “Fold PAD2 Selectivity” value came out at 33 fold. In addition, on PAD3, the kinact/KI was 20.8 M⁻¹ s⁻¹ and the “Fold PAD3 Selectivity” value was 1.0 fold. In addition, at PAD4, the kinact/KI is 20.7 M⁻¹ s⁻¹ and the “Fold PAD4 Selectivity” value is recorded as 1.0 fold.
As to `CCN1Cc2cccc(C(=O)N[C@@H](CCCNC(=N)CF)c3nc4ccccc4[nH]3)c2C1=O` [Compound 8a, N1-(2-ethyl-3-oxoisoindoline)benzol-N5-(2-fluoro-1-iminoethyl)-1-(1H-benzo[d]imidazol-2-yl)-L-ornithine], on PAD1, the kinact/KI was 807 M⁻¹ s⁻¹ and the “Fold PAD1 Selectivity” value worked out at 3.4 fold. At PAD2, the kinact/KI is 240 M⁻¹ s⁻¹ and the “Fold PAD2 Selectivity” value worked out at 1.0 fold. Also, on PAD3, the kinact/KI was 248 M⁻¹ s⁻¹ and the “Fold PAD3 Selectivity” value was determined as 1.0 fold. Besides, at PAD4, the kinact/KI was 248 M⁻¹ s⁻¹ and the “Fold PAD4 Selectivity” value is 1.0 fold.
Take `COc1cccc2c1nc([C@H](CCCNC(=N)CF)NC(=O)c1cccc3c1C(=O)N(C(C)C)C3)n2C` [Compound 8q]: on PAD1, the kinact/KI was 858 M⁻¹ s⁻¹ and the “Fold PAD1 Selectivity” value is 32 fold. In addition, on PAD2, the kinact/KI is 1560 M⁻¹ s⁻¹ and the “Fold PAD2 Selectivity” value amounted to 58 fold. Besides, at PAD3, the kinact/KI was 26.7 M⁻¹ s⁻¹ and the “Fold PAD3 Selectivity” value turned out to be 1.0 fold. Besides, on PAD4, the second-order inactivation constant (kinact/KI) was 70 M⁻¹ s⁻¹ and the “Fold PAD4 Selectivity” value turned out to be 2.6 fold.
Consider `CCn1c([C@H](CCCNC(=N)CF)NC(=O)c2ccc(-c3ccccc3)cc2)nc2ccccc21` [Compound 5i, N1-[1,4′-Phenyl]benzoyl-N5-(2-fluoro-1-iminoethyl)-1-(1-ethyl-benzo[d]imidazol-2-yl)-L-omithine], for which, on PAD1, the kinact/KI is 12.7 M⁻¹ s⁻¹ and the “Fold PAD1 Selectivity” value is 25 fold. For the same compound, at PAD2, the kinact/KI was 19.3 M⁻¹ s⁻¹ and the “Fold PAD2 Selectivity” value is listed as 39 fold. At PAD3, the kinact/KI was 30 M⁻¹ s⁻¹ and the “Fold PAD3 Selectivity” value turned out to be 60 fold. In addition, on PAD4, the kinact/KI was 0.5 M⁻¹ s⁻¹ and the “Fold PAD4 Selectivity” value was 1.0 fold.
`COc1cccc2c1nc([C@H](CCCNC(=N)CCl)NC(=O)c1cccc3c1C(=O)N(C1CC1)C3)n2C` [Compound 8t]: at PAD1, the kinact/KI was 674 M⁻¹ s⁻¹ and the “Fold PAD1 Selectivity” value is 4.7 fold. In addition, at PAD2, the kinact/KI is 958 M⁻¹ s⁻¹ and the “Fold PAD2 Selectivity” value turned out to be 6.7 fold. At PAD3, the inactivation efficiency (kinact/KI) was 158 M⁻¹ s⁻¹ and the “Fold PAD3 Selectivity” value stood at 1.1 fold. Besides, at PAD4, the kinact/KI was 143 M⁻¹ s⁻¹ and the “Fold PAD4 Selectivity” value was determined as 1.0 fold.
As to `N=C(CCl)NCCC[C@H](NC(=O)c1cccc2c1C(=O)NC2)c1nc2ccccc2[nH]1` [Compound 7b, N1-(3-oxoisoindoline)benzol-N5-(2-chloro-1-iminoethyl)-1-(1H-benzo[d]imidazol-2-yl)-L-ornithine], at PAD1, the kinact/KI is 3010 M⁻¹ s⁻¹ and the “Fold PAD1 Selectivity” value turned out to be 6.5 fold. Besides, at PAD2, the kinact/KI is 1090 M⁻¹ s⁻¹ and the “Fold PAD2 Selectivity” value is on record as 2.3 fold. Besides, on PAD3, the kinact/KI was 467 M⁻¹ s⁻¹ and the “Fold PAD3 Selectivity” value was found to be 1.0 fold. Also, at PAD4, the kinact/KI is 968 M⁻¹ s⁻¹ and the “Fold PAD4 Selectivity” value was 2.1 fold.
For the compound `CCn1c([C@H](CCCNC(=N)CF)NC(=O)c2cccc3c2C(=O)NC3)nc2ccccc21` [Compound 7e, N1-(3-oxoisoindoline)benzoyl-N5-(2-fluoro-1-iminoethyl)-1-(1-ethyl-benzo[d]imidazol-2-yl)-L-ornithine], at PAD1, the kinact/KI was 675 M⁻¹ s⁻¹ and the “Fold PAD1 Selectivity” value is reported as 37 fold. Besides, on PAD2, the pKi is 4.48, the kinact was determined as 0.0337 s⁻¹, the kinact/KI was 1030 M⁻¹ s⁻¹ and the “Fold PAD2 Selectivity” value was 56 fold. For the same compound, at PAD3, the inactivation efficiency (kinact/KI) is 18.3 M⁻¹ s⁻¹ and the “Fold PAD3 Selectivity” value is given as 1.0 fold. At PAD4, the kinact/KI was 31.7 M⁻¹ s⁻¹ and the “Fold PAD4 Selectivity” value is reported as 1.7 fold.
